Results reported in US20150150246A1, “USE OF INSECT GROWTH REGULATORS IN COCKROACH CONTROL” (MCLAUGHLIN GORMLEY KING COMPANY, priority 2013, published 2015).
Where two headings read alike, the source gives them in different places.

Tests used:
[1] = test system: German cockroaches; conditions: male, German cockroach, in vivo, po
Experimental: Adult male German cockroaches were obtained directly from German cockroach colonies maintained in the laboratory after a brief exposure to CO2 to facilitate handling. Cohorts of similar age (˜11 weeks old), adult male cockroaches (˜300 individuals) were randomly selected and moved into holding containers (Lock&Lock containers, Lock&Lock Co. Ltd., Dallas, Tex., USA) using a pair of soft tissue forceps. Cockroaches were starved in holding containers for 48 hours. Following starvation, cockroaches were transferred into the fecal collection apparatus. The fecal collection apparatus consisted of two vertically connected holding containers (Lock&Lock Co. Ltd., Dallas, Tex., USA) separated by a mesh screen. Cockroaches were introduced into the upper compartment of the collection apparatus and fecal pellets were collected from the floor of the lower container. The floor of the lower container was sealed with aluminum foil to facilitate the removal of fecal pellets. […] Fecal pellets were collected weekly until a sufficient amount of faeces was obtained to achieve analytical quantification. Quantification of pyriproxyfen was made by standard high-performance liquid chromatography-mass spectrometry (HPLC-MS) developed for pyriproxyfen. […]

[2] = test system: cockroaches; assay: Efficacy of bait at different pyriproxyfen concentrations; conditions: in vivo
Experimental: In one embodiment, the bait comprises abamectin at 0.05% and pyriproxyfen at 0.5% by weight. Efficacy was observed from 0.05 to 1.0% of pyriproxyfen. No higher doses were tested due to physical changes to the matrix, but higher amounts could be used by modifying the matrix. Pyriproxyfen is non-repellent so biologically 1.0% is not an absolute upper concentration limit.

[3] = test system: German cockroaches; assay: Reproductive inhibition by harborages contaminated with pyriproxyfen-containing fecal pellets (secondary exposure); type: in vivo, German cockroach
[4] = test system: German cockroach males; conditions: cited from earlier work

CC(COc1ccc(Oc2ccccc2)cc1)Oc1ccccn1 (stereo not drawn) [pyriproxyfen]
portion of ingested pyriproxyfen present in the frass [1]: ~60% | repellency [2]: non-repellent | suppression of the reproductive output of exposed cockroaches ([3]; consumption of pyriproxyfen contaminated frass (secondary exposure)): 100% | suppression of reproductive maturation ([3]; fecal pellets deposited following consumption of pyriproxyfen): 100%

abamectin
mortality of German cockroach males ([4]; in 5 days, same conditions): 100%

N#Cc1nn(-c2c(Cl)cc(C(F)(F)F)cc2Cl)c(N)c1[S+]([O-])C(F)(F)F (stereo not drawn) [fipronil]
mortality of German cockroach males ([4]; 24-hour post-bait introduction, laboratory studies): 100%
